Laboratory results from publication PMC7477407, “In vivo studies of a peptidomimetic that targets EGFR dimerization in NSCLC” (Journal of Cancer, 2020).
Read-outs that look alike come from different tables or passages of the source. Numbered stars: 1 amine (or outer) side, 2 acyl side, 3 side chain; on linkers, the order of the positions; unused ones are H or OH. Square brackets hold non-standard residues; d marks the D form. Peptide text beside a SMILES is read from it. βAla(3R-(1-naphthyl)) = O=C(C[C@@H](N[*:1])c1cccc2ccccc12)[*:2]

What was measured:
[1] = system: NCI-H1975; settings: read-out: IC50, antiproliferative activity in NCI-H1975; NCI-H1975 EGFR mutated NSCLC cell line
Procedure: (§1) In a 96-well plate, 1 × 10^4 cells/well were seeded and incubated overnight at 37 °C and 5% CO2. The stock solution of the peptidemimetic was prepared by dissolving them in DMSO. Stock solutions of the compound and controls were diluted using the serum-free medium to prepare solutions of different concentrations of compounds with DMSO concentration not exceeding 1% (v/v) in the final solution in each well of a 96-well plate. […] A dose-response curve was generated using percentage cell viability vs. log concentration of compounds, and IC50 values were obtained using Prism® (GraphPad Software). Experiments were repeated three times to obtain standard deviation values.
(§2) In vivo Studies of a Peptidomimetic that Targets EGFR
(§3) Leeza Shrestha1, Sitanshu Singh1, Pravin Parajuli1, Achyut Dahal1, George Mattheolabakis1,
(§4) Sharon Meyer1, Joydeep Bhattacharjee2, Seetharama Jois1*
(§5) 1School of Basic Pharmaceutical and Toxicological Sciences, College of Pharmacy, University
(§6) of Louisiana Monroe, Monroe, LA 71201.
(§7) 2Biology Program, School of Sciences, University of Louisiana Monroe, Monroe, LA 71029.

[2] = system: SKOV-3; settings: read-out: IC50, antiproliferative activity in SKOV-3; SKOV-3 ovarian cancer, HER2+
Procedure: as §1, §2, §3, §4, §5, §6, §7

[3] = system: phosphorylated HER2 protein (p-HER2); assay: Western blot of HER2 phosphorylation in A549 cells; type: cell-based, human; settings: 2 µM, 36 h, Western blot densitometry
Procedure: (§8) A549 cells were treated with 2 µM 18 or 2 µM lapatinib (positive control). Cells without treatment were employed as a negative control. Cells were treated for 36 h, washed, and trypsinized. 35 μg of protein from each sample was loaded on Novex® 4-20% tris-glycine gels and transferred into nitrocellulose membranes. The membranes were blocked with 2% bovine serum albumin solution and incubated with primary antibodies overnight at 4 °C. Antibodies for the detection of total HER2 protein (t-HER2), phosphorylated HER2 protein (p-HER2), total AKT (t-AKT); (Cell Signaling Technology, phosphorylated AKT (P-Akt, S473); (Cell Signaling Technology) were used at 1:1000 dilution. Secondary antibodies with HRP conjugation was incubated for 1 h. After the addition of the substrate and enhancer solutions from a super signal enhanced chemiluminescence kit (Pierce, Rockford, IL) to the membrane, images were captured using ChemiDoc™ Touch Gel Imaging System (Bio-Rad), and band densities were quantified. A representative Western blot image was used for the final presentation. Data are from triplicates and are presented as the mean ± standard error of the mean (SEM). To evaluate the significance, statistical analysis was performed by a one-tail T-test using Prism Graph Pad (GraphPad Software, San Diego). P< 0.05 was considered statistically significant, [32].

[4] = system: phosphorylated AKT (P-Akt, S473); assay: Western blot of Akt phosphorylation in A549 cells; type: cell-based, human; settings: 2 µM, 36 h, Western blot densitometry
Procedure: as §8

[5] = system: A549 Red-FLuc lung tumors; assay: Antitumor assessment, experimental metastasis lung cancer model, bioluminescence imaging; type: in vivo; settings: 18 6 mg/kg, lapatinib 10 mg/kg, twice a week; A549-Red-FLuc lung tumors in nude mice
Procedure: All animal studies were conducted in accordance with NIH guidelines for care, and use of laboratory animals and protocols were approved by the Institutional Animal Care and Use Committee at the University of Louisiana Monroe. Bioware® Brite Cell Line A549 Red-FLuc cells that had been engineered to express firefly luciferase (Perkin Elmer) were injected into the tail vein (4.5 × 10^6 cells in 200 µl PBS per mouse) of 6-week-old Foxn1^nu-nude mice. For bioluminescence imaging, mice were anesthetized with 1-3% isoflurane and 150 mg/kg of D-luciferin (PerkinElmer) in phosphate-buffered saline (PBS) was given by intraperitoneal injection. 8 min after injection, bioluminescence was imaged with an IVIS Lumina III Series (PerkinElmer), and regions of interest (ROI) were drawn around the bioluminescent signals and quantified as photons/second (p/s). Mice with tumors were divided into three groups viz. control (vehicle), 18 treatment, and lapatinib treatment. After two weeks of the inoculation of tumor cells, mice from the respective groups were injected intravenously with 18 (6 mg/kg) or lapatinib (10 mg/kg) or vehicle twice a week for the next three weeks. To evaluate the effect of the treatments, tumors were imaged, and bioluminescence was measured once a week. […]

[6] = system: HER2 phosphorylation; assay: Western blot of HER2 phosphorylation in lung tumor tissue; type: in vivo, mice; settings: tumors harvested day 35; 18 6 mg/kg, lapatinib 10 mg/kg
Procedure: as §8, with “Data are from triplicates and are presented as the mean ± standard error of the mean (SEM). To evaluate the significance, statistical analysis was performed by a one-tail T-test using Prism Graph Pad (GraphPad Software, San Diego). P< 0.05 was considered statistically significant, [32].” left out
All animal studies were conducted in accordance with NIH guidelines for care, and use of laboratory animals and protocols were approved by the Institutional Animal Care and Use Committee at the University of Louisiana Monroe. […] To evaluate the effect of the treatments, tumors were imaged, and bioluminescence was measured once a week. […]

[7] = biological target: T1, EGFR:HER2 dimerization (Homo sapiens, UniProt P04626); assay: Proximity ligation assay on lung tumor tissue, EGFR:HER2; type: in vivo, mice; settings: 6 mg/kg, vs vehicle control
T1 construct: from tissue; host or cells: Lung tumour tissue of nude mice injected IV with A549-Red-FLuc human NSCLC cells
T1 sequence (P04626 23-1255): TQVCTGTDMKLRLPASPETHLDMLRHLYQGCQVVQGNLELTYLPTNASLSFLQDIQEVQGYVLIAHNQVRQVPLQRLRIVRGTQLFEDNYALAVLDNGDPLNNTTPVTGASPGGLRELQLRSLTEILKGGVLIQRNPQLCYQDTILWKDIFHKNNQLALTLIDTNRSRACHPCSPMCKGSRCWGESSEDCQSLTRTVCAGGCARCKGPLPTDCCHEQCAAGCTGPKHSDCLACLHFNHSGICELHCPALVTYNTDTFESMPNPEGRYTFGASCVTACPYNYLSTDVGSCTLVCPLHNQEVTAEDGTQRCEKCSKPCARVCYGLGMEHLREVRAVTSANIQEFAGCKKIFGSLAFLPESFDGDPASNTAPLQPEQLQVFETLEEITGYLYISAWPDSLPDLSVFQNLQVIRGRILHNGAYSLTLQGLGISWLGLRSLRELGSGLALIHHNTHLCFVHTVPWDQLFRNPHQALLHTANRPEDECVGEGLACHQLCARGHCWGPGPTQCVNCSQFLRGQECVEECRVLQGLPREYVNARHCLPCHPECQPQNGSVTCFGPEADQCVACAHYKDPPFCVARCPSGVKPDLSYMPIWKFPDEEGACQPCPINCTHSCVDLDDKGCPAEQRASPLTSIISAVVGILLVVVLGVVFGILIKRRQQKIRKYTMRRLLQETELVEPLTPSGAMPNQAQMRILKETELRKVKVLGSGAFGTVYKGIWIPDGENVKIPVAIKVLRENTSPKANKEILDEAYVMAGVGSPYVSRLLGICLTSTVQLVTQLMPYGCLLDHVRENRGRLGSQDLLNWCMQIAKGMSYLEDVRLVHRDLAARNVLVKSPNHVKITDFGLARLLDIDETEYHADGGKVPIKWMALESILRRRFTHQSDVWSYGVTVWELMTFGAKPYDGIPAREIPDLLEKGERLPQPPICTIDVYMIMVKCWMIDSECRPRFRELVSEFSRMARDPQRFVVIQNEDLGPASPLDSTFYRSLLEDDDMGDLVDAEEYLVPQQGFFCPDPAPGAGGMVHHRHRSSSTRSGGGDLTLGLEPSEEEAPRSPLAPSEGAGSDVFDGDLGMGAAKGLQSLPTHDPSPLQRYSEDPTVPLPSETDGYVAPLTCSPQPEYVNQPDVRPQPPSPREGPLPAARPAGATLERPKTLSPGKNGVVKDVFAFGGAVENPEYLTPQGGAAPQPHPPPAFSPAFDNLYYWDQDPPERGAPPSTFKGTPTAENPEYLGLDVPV
Procedure: (§9) The lung tissue samples with tumors were fixed on the slides. […] Antigen retrieval on the tissue section of slides was done in a steaming sodium citrate buffer (10 mM, 0.05% Tween 20, pH 6.0) for 15 min. Tissue slides were incubated with primary antibodies overnight at 4 °C and washed, and secondary antibodies PLA+ and PLA- were added. After incubation and washing, PLA detection reagents were added, [36]. The mounting medium was then added, and the slides were coverslipped. Slides were viewed using an Olympus BX63 fluorescence microscope fitted with deconvolution optics using DAPI, and Texas Red filters. Images were obtained at 40×.

[8] = biological target: T2, HER2:HER3 dimerization (Homo sapiens, UniProt P04626); assay: Proximity ligation assay on lung tumor tissue, HER2:HER3; type: in vivo, mice; settings: 6 mg/kg, vs vehicle control
T2 construct: from tissue; host or cells: Lung tumour tissue of nude mice injected IV with A549-Red-FLuc human NSCLC cells
T2 sequence (P04626 23-1255): as above
Procedure: as §9

[9] = system: lung, heart, kidney, liver tissue; type: in vivo, mice; settings: for Lung histology (H&E) compared to vehicle: day 35, 18 6 mg/kg, lapatinib 10 mg/kg
Procedure: For histopathological analysis, lungs, kidney, liver, heart, and pancreas were excised from the mice and fixed with 10% normal formalin solution. These fixed samples were embedded in paraffin, and slides were prepared by cutting them into 5 μm slices and mounting on the glass. Prepared slides were stained using hematoxylin and eosin (H&E) staining. Slides were visualized under a microscope (Nikon labophot 2. Type120) and pictures were taken at different magnifications for analysis. Representative pictures from histopathology analysis were used for presentation.

[10] = mouse, in vivo, iv
Procedure: (§10) Female Foxn1-nude, 6-7 week-old mice (Envigo) were used in all studies.
(§11) After administration of the compound, mice were sacrificed at certain time intervals (0, 0.25, 0.75, 2, 4, 6, 12 and 24 h), and blood samples were taken to study the amount of compound remaining in blood circulation. The samples were then centrifuged at 1000 rpm for 5 min. The separated supernatant serum samples were precipitated by acetonitrile to extract the analytes and passed through the Sep-Pak (Waters) column. Chromatographic separation was performed on an HPLC. Mass spectrometry was used to identify the correct molecular ion of the intact compound.
(§12) Blood samples were collected at different time intervals, and analysis of the sample was accomplished using HPLC and mass spectrometry. […] For pharmacokinetic parameter analysis, PKSolver software was used [50]. […] Based on the AIC, SC, and curve fitting by the PKSolver software, intravenous bolus administration/two compartmental model was selected for deriving our reported pharmacokinetic parameters.

[11] = system: A549 cells; settings: read-out: IC50, antiproliferative activity in A549; A549 NSCLC, HER2+; 72 h, serum-free medium, CellTiter-Glo
Procedure: HER2 positive A549 lung cancer cell line was purchased from American Type Culture Collection (ATCC, Manassas, VA) and subcultured in RPMI media (ATCC) with 10% FBS. […] Cells were incubated in a humidified atmosphere of 5% CO2 at 37°C.

[12] = 25 to 80 °C, 18 μM
Procedure: Circular dichroism experiments were done using a Jasco J-815 CD Spectrometer (Jasco, Japan) at temperatures from 20 to 80 °C with a gradual 5 °C increase before reading. […] The spectra for samples were recorded from 185-350 nm wavelengths with a total of four scans for each temperature, and wavelength vs. ellipticity was plotted for an average of four scans.

[13] = mouse, in vivo, iv; remark: listed apart in the source
Procedure: as §10, §11, §12

[14] = biological target: human serum albumin (HSA) (Homo sapiens, UniProt P02768)
Chain of human serum albumin (HSA) (P02768 25-609): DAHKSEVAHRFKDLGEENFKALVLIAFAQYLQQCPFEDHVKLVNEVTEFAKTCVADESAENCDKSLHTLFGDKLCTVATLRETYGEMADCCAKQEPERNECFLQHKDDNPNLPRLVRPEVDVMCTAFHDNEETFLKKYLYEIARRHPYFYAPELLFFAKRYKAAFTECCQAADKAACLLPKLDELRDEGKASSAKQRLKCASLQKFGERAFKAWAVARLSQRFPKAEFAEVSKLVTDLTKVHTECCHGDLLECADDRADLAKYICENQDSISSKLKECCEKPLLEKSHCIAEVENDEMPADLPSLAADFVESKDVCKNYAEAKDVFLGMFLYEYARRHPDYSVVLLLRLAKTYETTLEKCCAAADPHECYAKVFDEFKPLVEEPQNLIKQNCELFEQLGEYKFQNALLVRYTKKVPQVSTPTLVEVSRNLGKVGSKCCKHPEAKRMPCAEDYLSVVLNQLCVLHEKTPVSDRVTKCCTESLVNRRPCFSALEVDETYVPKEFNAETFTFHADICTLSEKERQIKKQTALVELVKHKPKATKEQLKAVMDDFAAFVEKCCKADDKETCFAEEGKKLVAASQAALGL
Procedure: Surface plasmon resonance analysis was performed in 0.01 M phosphate-buffered saline (NaCl 0.138 M; KCl -0.0027 M); Tween® 20 -0.05%, pH 7.4 using a Reichert Life Sciences System. Immobilization of HSA to the hydrophilic carboxymethylated dextran matrix of the CM5 sensor chip was carried out by the standard primary amine coupling method. […] All binding experiments were performed at a flow rate of 25 µL/min. After each interaction analysis, the sensor chip was regenerated with water. […] The Kd values were obtained using the 1:1 kinetic evaluation fitting tool of Tracedrawer software.

[15] = system: SKBR-3; design: method as in ref 20 (Kanthala et al. Oncotarget 8(43):74244-74262); settings: SKBR-3 breast cancer, HER2+; ref 20 (Kanthala et al. Oncotarget 8(43):74244-74262); read-out: IC50, antiproliferative activity in SKBR-3; cited from earlier work
[16] = system: MCF-7; settings: MCF-7 breast cancer, HER2-; read-out: IC50, antiproliferative activity in MCF-7; cited from earlier work
[17] = system: MCF-10A; design: method as in ref 20 (a number printed in a supplementary file, which may have a reference list of its own: not looked up in the article's list); settings: MCF-10A non-cancerous breast cell line, basal HER2; read-out: IC50, antiproliferative activity in MCF-10A; cited from earlier work
[18] = system: HER2 expression; design: method as in ref 20 (a number printed in a supplementary file, which may have a reference list of its own: not looked up in the article's list); settings: HER2-positive breast cancer xenograft, 4 mg/kg IV; cited from earlier work
[19] = physchem; settings: buffer, pH 1
Excerpt: Shimadzu FCV-20AH2 manual injector was used with Ultra C18, 5 µm (250 × 4.6 mm) column, Shimadzu SPD-20A UV/Vis detector, and Shimadzu LC-20AP pump. 40% acetonitrile (0.1% TFA) with 60% water (0.1% TFA) was used as mobile phase. Relative Peak area was plotted as % remaining compound with respect to time compared with zero time point, and data are from triplicate experiments. For pH stability, a buffer with pH 1 was obtained by adding 0.1 M HCl, and a buffer with pH 7.5 was obtained by adding 0.1 M PBS (Sigma).

[20] = in vitro; settings: simulated gi fluid
Procedure: (§13) Simulated intestinal fluid TS and simulated gastric fluid were purchased from Ricca Chemical (Arlington, TX). Pepsin (0.32 g/100 ml) was added to the simulated gastric fluid. To determine the effect of simulated gastric and intestinal fluids on 18, it (10µM) was incubated in gastric fluid with pepsin for 6 h and intestinal fluid for 12 h at 37 °C. Samples were taken at particular time intervals and analyzed using the HPLC method [33]. Methods used were similar to the methods explained above for HPLC analysis.

[21] = in vitro; settings: simulated gi fluid; remark: listed apart in the source
Procedure: as §13

With `N=C(N)NCCC[C@@H]1NC(=O)[C@H]2CCCN2C(=O)[C@@H]2CCCN2C(=O)[C@H](CCCNC(=N)N)NC(=O)C[C@H](c2cccc3ccccc23)NC(=O)[C@H](Cc2ccccc2)NC(=O)[C@H](CC(=O)O)NC(=O)[C@H](CC(=O)O)NC(=O)[C@H](Cc2ccccc2)NC(=O)C[C@H](c2cccc3ccccc23)NC1=O` [Compound 18] (cyclo(DDF[βAla(3R-(1-naphthyl))]RP[dP]R[βAla(3R-(1-naphthyl))]F)) the IC50 [1] was 4.85 ± 0.217 µM, the IC50 [2] was 0.853 ± 0.102 µM and the “Inhibition of phosphorylation of HER2 compared to control” value [3] was 41.6%. The “Inhibition of phosphorylation of Akt compared to control” value [4] was 24.7%, the “Rate of tumor growth indicated by total flux compared with vehicle” value [5] was “decreased” and the “HER2 phosphorylation in lung tumor tissue compared to control” value [6] was “inhibited HER2 phosphorylation to a significant extent”. The “EGFR:HER2 dimerization in lung tumor tissue (PLA red fluorescence)” value [7] was “reduction in red fluorescence”, the “HER2:HER3 dimerization in lung tumor tissue (PLA red fluorescence)” value [8] was “reduction in red fluorescence” and the “Toxicity to organs (heart, liver, lung, kidney), H&E” value ([9]; 6 mg/kg, three weeks of treatment) was “no significant tissue damage or toxic effects”. The “Lung histology (H&E) compared to vehicle” value [9] was “remarkably fewer tumors and less inflammatory infiltration”, the AUC(0-inf) [10] was about 459 µg·h/mL and the Vd [10] was about 0.011 L. It also gave a clearance [10] of about 0.00433 mL/min, a half-life ([10]; 4 mg/kg, Terminal half-life) of about 42 h and a half-life ([10]; 6 mg/kg, Terminal half-life) of about 46 h. The half-life ([10]; Distribution half-life) was about 0.8 h, the half-life ([10]; Terminal half-life in vivo) was over 40 h and the IC50 [11] was 0.868 ± 0.032 µM. For the same molecule, the “Change of circular dichroism spectra (backbone conformation) with temperature” value [12] was “did not show any significant change”, the “Time after which concentration decreases significantly at pH 1” value (pH 1) was over 4 days and the “Stability at pH 7.5” value (pH 7.5) was “stable for 30 days”. The Vd peripheral [13] was about 17 mL, the “Compound in free form” value [14] was about 22% and the IC50 [15] was 0.194 ± 0.046 µM. For the same molecule, the IC50 [16] was over 50 µM, the IC50 [17] was 40 µM and the “Change in HER2 expression in xenograft tumor tissue” value [18] was “no”. For the same molecule, the remaining at 720 h [19] was over 40%, the remaining at 6 h, 10 µM [20] was over 80% and the remaining at 12 h, 10 µM [21] was over 40%.
In the case of `CS(=O)(=O)CCNCc1ccc(-c2ccc3ncnc(Nc4ccc(OCc5cccc(F)c5)c(Cl)c4)c3c2)o1` [lapatinib, reference compound], the “Rate of tumor growth indicated by total flux compared with vehicle” value [5] is reported as “decreased”, the “HER2 phosphorylation in lung tumor tissue compared to control” value [6] is reported as “inhibited HER2 phosphorylation to a significant extent” and the “Lung histology (H&E) compared to vehicle” value [9] is reported as “remarkably fewer tumors and less inflammatory infiltration”.
